Earlier results, collected in article PMC9371267 (PLoS Biology, 2022).

How the values were obtained:
GALRs = details: Trp2 replaced with alanine; ref [4]; cited from earlier work
Excerpt: (§1) Activated GPCRs act as nucleotide exchange factors through direct interactions with heterotrimeric G-proteins. The C-terminal helix of mGαqiN fits into a hydrophobic pocket formed by TM 5–7 of GALR2 (Fig 1B). Phe228, Ile235, Asn239, and Tyr243 of mGαqiN form the principal interface with GALR2, and a salt bridge forms between Glu135^ICL2 of GALR2 and Arg32 of mGαqiN (Fig 1B). […] The modeled fra ...

GALR2 = details: endogenous ligands; ref [13]; cited from earlier work
Excerpt: as §1

GALR2 vs GALR1 = details: GALR2 over GALR1; ref [3]–[5]; cited from earlier work
Excerpt: Its GPCR family receptors (from GALR1 to GALR3) are associated with different disease states and have been used as markers for certain cancer types. […] Agonists for GALR2 are be ...

GALR2 and GALR3 vs GALR1 = details: ref [3],[14]; cited from earlier work
Excerpt: Phe264 and Leu266 in ECL3 contact Leu10^P and Trp2^P ...

In the case of “Trp2^P of galanin with alanine: galanin with Trp2^P replaced with alanine (GATLNSAGYLLGPHAVGNHRSFSDKNGLTS; Galanin; UniProt P22466 33-62, looked up, variant W2A)”, the “binding to GALRs” value (GALRs) is given as “prevents binding to GALRs”.

In the case of “galanin-like peptide (APAHRGRGGWTLNSAGYLLGPVLHLPQMGDQDGKRETALEILDLWKAIDGLPYSHPPQPS; Galanin-like peptide; UniProt Q9UBC7 25-84, looked up) [GALP]”, the “activation of GALR2” value (GALR2) is listed as “activate GALR2”.

For “galanin^2–11: truncated peptide galanin^2–11”, the “binds to GALR2 more tightly than GALR1” value (GALR2 vs GALR1) is listed as “roughly 500 times” and the receptor specificity (GALR2 and GALR3 vs GALR1) is listed as “specificity for GALR2 and GALR3 over GALR1”.

B1: spexin (peptide, UniProt Q9BT56 27-116, looked up)
Spexin: APQRLLERRNWTPQAMLYLKGAQGRRFISDQSRRKDLSDRPLPERRSPNPQLLTIPEAATILLASLQKSPEDEEKNFDQTRFLEDSLLNW
modifications: Spexin
For B1, the “activation of GALR2” value (GALR2) is listed as “activate GALR2”.
